{"source": "patent US20180333352A1", "about": "“TOPICAL FORMULATIONS AND USES THEREOF” (SUN PHARMA GLOBAL FZE, priority 2015, published 2018)", "origin": "cited, not measured here", "key": {"[1]": {"system": "T-cell adhesion to ICAM-1 expressing cells", "conditions": "in vitro"}, "IFNγ, TNFα, IL-2": {"system": "IFNγ, TNFα, IL-2", "conditions": "in vitro"}}, "data": [{"smiles": "CCNC(=O)CCC/C=C\\C[C@@H]1[C@@H](/C=C/[C@@H](O)CCc2ccccc2)[C@H](O)C[C@@H]1O", "note": "[Bimatoprost, (Z)-7-[(1R,2R,3R,5 S)-3,5-Dihydroxy-2 [(1E,3S)-3-hydroxy-5-phenyl-1-pentenyl]cyclopentyl]-5-N-ethylheptenamide]", "values": [{"measurement": "Solubility in ethyl alcohol and methyl alcohol", "setting": "ethyl alcohol, methyl alcohol", "result": "very soluble"}, {"measurement": "Solubility in water", "setting": "water", "result": "only slightly soluble"}]}, {"smiles": "CS(=O)(=O)c1cccc(C[C@H](NC(=O)c2c(Cl)cc3c(c2Cl)CCN(C(=O)c2ccc4ccoc4c2)C3)C(=O)O)c1", "note": "[lifitegrast]", "values": [{"measurement": "T-cell adhesion to ICAM-1 expressing cells", "setting": "[1]", "result": "inhibits"}, {"measurement": "Secretion of key inflammatory cytokines (IFNγ, TNFα, IL-2)", "setting": "IFNγ, TNFα, IL-2", "result": "inhibits"}]}]}
